A word on the inhibition: it is the percentage by which the read-out fell short of the control.

Test [1] concerns herpes simplex type 1 (KOS strain). Put plainly: Plaque reduction assay in Vero cells. Format: cell-based. Conditions: HSV-1 KOS, three days. Here is the method:
Antiviral activity was determined using a plaque reduction assay. Petri plates were seeded with Vero cells which were then allowed to grow to confluency. Each plate was then infected with a fixed number of plaque forming units (abut 100-500) of herpes simplex type 1 (KOS strain). The inhibitors, either alone or in the indicated combinations, were dissolved to give the indicated concentration in minimal essential medium containing 2% heat inactivated fetal calf serum and 0.5% human immune serum globulin: One hour after infection the solutions (10 ml per plate) were added to the cultures. Three days later the cultures were formalin-fixed and stained with crystal violet, and the plaques were counted.
(In a plaque reduction assay, fewer plaques than in the control indicate reduced infectivity or spread.)

The test system of test [2] is Friend Leukemia Virus (FLV). Description: Anti-Friend Leukemia Virus plaque inhibition in FG-10 cells. Particulars: FG-10 cells infected with FLV; compound added one hour after infecting; 3 + 3 days incubation; read-out: IC50 (concentration giving 50% inhibition of plaques). In kind it is cell-based. How it is done: The enhancement of the Anti-Friend Leukemia Virus (FLV) activity of zidovudine by bacterial thymidine phosphorylase is shown in Table 1. FG-10 cells were used seeded on a plate one day before they were infected with FLV. One hour after infecting, known concentrations of the test compound or combination were added. The plates were incubated for 3 days, the media replaced with fresh McCoy's 5A media and incubated another 3 days.

Structures are written as SMILES.

With `Nc1nc2c(ncn2COCCO)c(=O)[nH]1` [Acyclovir, 9-[(2-hydroxyethoxy)methyl]guanine], the “Average Plaque Count” value in test [1] (Conc. 0.1 μM) stood at 316.5; in test [1] (Conc. 0.25 μM), 298; in test [1] (Conc. 0.5 μM) it was 290.5; in test [1] (Conc. 1.0 μM), 230; in test [1] (Conc. 2.5 μM), 182; in test [1] (Conc. 5.0 μM), 88. For the same compound, the “Average Plaque Count” value turned out to be 54 in test [1] (Conc. 7.5 μM) and 34.5 in test [1] (Conc. 10 μM). The inhibition at 0.1 µM in test [1] (Human alphaherpesvirus 1, 72 h, Conc. 0.1 μM) turned out to be 11.6%. In addition, the inhibition at 0.25 µM in test [1] (Human alphaherpesvirus 1, 72 h, Conc. 0.25 μM) stood at 16.7%. In test [1] (Human alphaherpesvirus 1, 72 h, Conc. 0.5 μM), the inhibition at 0.5 µM was 19%. Also, the inhibition at 1 µM in test [1] (Human alphaherpesvirus 1, 72 h, Conc. 1.0 μM) turned out to be 35.8%. Also, the inhibition at 2.5 µM in test [1] (Human alphaherpesvirus 1, 72 h, Conc. 2.5 μM) came to 49.2%. Moreover, in test [1] (Human alphaherpesvirus 1, 72 h, Conc. 5.0 μM), the inhibition at 5 µM was 75.4%. Further, the inhibition at 7.5 µM in test [1] (Human alphaherpesvirus 1, 72 h, Conc. 7.5 μM) came to 84.9%. Moreover, in test [1] (Human alphaherpesvirus 1, 72 h, Conc. 10 μM), the inhibition at 10 µM was 90.4%.
Turning to `Cc1cn([C@H]2C[C@H](N=[N+]=[N-])[C@@H](CO)O2)c(=O)[nH]c1=O` [Zidovudine, 3′-azido-3′-deoxythymidine], the IC50 in test [2] was found to be 5 nM.

Source of the values: EP0289229A1, “Antiviral combinations” (THE WELLCOME FOUNDATION LIMITED, priority 1987, dated 1988).
